Assay results from patent US20050009840A1 (SUGEN, INC., priority 2003, published 2005).

biological target: T1, Met kinase domain (GST fusion protein) (Homo sapiens, UniProt P08581); experiment: Met transphosphorylation assay (ELISA, poly(glu-tyr) substrate); type: biochemical; conditions: Table 2; read-out: Met IC50;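 note: Cell-free ELISA with plate-bound poly(Glu:Tyr 4:1) phosphorylated by GST-fused Met kinase domain plus ATP and Mn2+, phosphotyrosine detected by anti-phosphotyrosine antibody with HRP and ABTS read-out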
T1 construct: Purified GST fusion protein containing the Met kinase domain
T1 sequence (P08581 1078-1345 limits assumed): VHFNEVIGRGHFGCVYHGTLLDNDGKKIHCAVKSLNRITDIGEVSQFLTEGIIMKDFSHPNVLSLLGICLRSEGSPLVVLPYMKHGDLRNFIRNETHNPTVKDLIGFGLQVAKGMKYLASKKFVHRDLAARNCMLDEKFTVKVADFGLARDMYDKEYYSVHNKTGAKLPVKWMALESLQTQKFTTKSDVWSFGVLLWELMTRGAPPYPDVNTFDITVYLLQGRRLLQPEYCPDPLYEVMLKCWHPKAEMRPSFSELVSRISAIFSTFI

Compound | IC50
CN(C)C1CCN(C(=O)c2ccc(-c3cnc(N)c(OCc4ccc(C(C)(C)C)cc4)c3)cc2)C1 (stereo in doubt) [Example I-196, {4-[6-Amino-5-(4-tert-butyl-benzyloxy)-pyridin-3-yl]-phenyl}-[(3R)-3-dimethylamino-pyrrolidin-1-yl]-methanone] | 4.29 µM

same assay, conditions: read-out: Met IC50

IC50 | Compound
1.38 µM | Nc1ncc(-c2cccc(NS(=O)(=O)CCN3CCCC3CO)c2)nc1OCc1c(F)ccc(F)c1Cl (stereo not shown)
0.59 µM | Nc1ncc(-c2cccc(OCCN3CCOCC3)c2)cc1OCc1c(Cl)cccc1Cl [Example I-3, 3-(2,6-Dichloro-benzyloxy)-5-[3-(2-morpholin-4-yl-ethoxy)-phenyl]-pyridin-2-ylamine]
1.4 µM | Nc1ncc(-c2cccc3[nH]ccc23)cc1OCc1c(Cl)cccc1Cl [Example I-4, 3-(2,6-Dichloro-benzyloxy)-5-(1H-indol-4-yl)-pyridin-2-ylamine]
4.71 µM | Nc1ncc(-c2cccc3[nH]ccc23)cc1OCc1c(Cl)cccc1-c1cccc2[nH]ccc12 [Example I-5, 3-[2-Chloro-6-(1H-indol-4-yl)-benzyloxy]-5-(1H-indol-4-yl)-pyridin-2-ylamine]
> 20 µM | CC(C)(C)OC(=O)n1cccc1-c1cnc(N)c(OCc2c(Cl)cccc2Cl)c1 [Example I-6, 2-[6-Amino-5-(2,6-dichloro-benzyloxy)-pyridin-3-yl]-pyrrole-1-carboxylic acid tert-butyl ester]
4.25 µM | Nc1ncc(-c2ccc[nH]2)cc1OCc1c(Cl)cccc1Cl [Example I-7, 3-(2,6-Dichloro-benzyloxy)-5-(1H-pyrrol-2-yl)-pyridin-2-ylamine]
6.09 µM | Nc1ncc(-c2ccccc2F)cc1OCc1c(Cl)cccc1Cl [Example I-10, 3-(2 6-Dichloro-benzyloxy)-5-(2-fluoro-phenyl)-pyridin-2-ylamine]
0.44 µM | CS(=O)(=O)Nc1ccc(-c2cnc(N)c(OCc3c(Cl)cccc3Cl)c2)cc1 [Example I-13, N-{4-[6-Amino-5-(2,6-dichloro-benzyloxy)-pyridin-3-yl]-phenyl}-methanesulfonamide]
> 20 µM | CC(=O)Nc1ccc(-c2cnc(N)c(OCc3c(Cl)cccc3Cl)c2)cc1 [Example I-14, N-{4-[6-Amino-5-(2,6-dichloro-benzyloxy)-pyridin-3-yl]-phenyl}-acetamide]
1.34 µM | Nc1ncc(-c2cccc(O)c2)cc1OCc1c(Cl)cccc1Cl [Example I-15, 3-[6-Amino-5-(2,6-dichloro-benzyloxy)-pyridin-3-yl]-phenol]
> 20 µM | Nc1ncc(-c2cccc(OC(F)(F)F)c2)cc1OCc1c(Cl)cccc1Cl [Example I-18, 3-(2,6-Dichloro-benzyloxy)- -5-(3-trifluoromethoxy-phenyl)-pyridin-2-ylamine]
2.16 µM | Nc1ncc(-c2ccccc2O)cc1OCc1c(Cl)cccc1Cl [Example I-19, 2-[6-Amino-5-(2,6-dichloro-benzyloxy)-pyridin-3-yl]-phenol]
14.3 µM | Nc1ncc(-c2ccc(F)c(F)c2)cc1OCc1c(Cl)cccc1Cl [Example I-21, 3-(2,6-Dichloro-benzyloxy)-5-(3,4-difluoro-phenyl)-pyridin-2-ylamine]
> 20 µM | Nc1ncc(-c2ccccc2C(F)(F)F)cc1OCc1c(Cl)cccc1Cl [Example I-23, 3-(2,6-Dichloro-benzyloxy)-5-(2-trifluoromethyl-phenyl)-pyridin-2-ylamine]
> 20 µM | Nc1ncc(-c2ccc(C(F)(F)F)cc2)cc1OCc1c(Cl)cccc1Cl [Example I-25]
> 20 µM | CS(=O)(=O)Nc1ccccc1-c1cnc(N)c(OCc2c(Cl)cccc2Cl)c1 [Example I-26, N-{2-[6-Amino-5-(2,6-dichloro-benzyloxy)-pyridin-3-yl]-phenyl}-methanesulfonamide]
8.5 µM | Nc1ncc(-c2ccc3c(c2)OCO3)cc1OCc1c(Cl)cccc1Cl [Example I-28, 5-Benzo[1,3]dioxol-5-yl-3-(2,6-dichloro-benzyloxy)-pyridin-2-ylamine]
> 20 µM | Nc1ncc(-c2ccccc2OC(F)(F)F)cc1OCc1c(Cl)cccc1Cl [Example I-29, 3-(2,6-Dichloro-benzyloxy)-5-(2-trifluoromethoxy-phenyl)-pyridin-2-ylamine]
> 20 µM | Nc1ncc(-c2ccccc2OCc2ccccc2)cc1OCc1c(Cl)cccc1Cl [Example I-31, 5-(2-Benzyloxy-phenyl)-3-(2,6-dichloro-benzyloxy)-pyridin-2-ylamine]
4.01 µM | COc1cccc(-c2cnc(N)c(OCc3c(Cl)cccc3Cl)c2)c1 [Example I-32, 3-(2,6-Dichloro-benzyloxy)-5-(3-methoxy-phenyl)-pyridin-2-ylamine]
7.5 µM | Nc1ncc(-c2cc3ccccc3[nH]2)cc1OCc1c(Cl)cccc1Cl [Example I-33, 3-(2,6-Dichloro-benzyloxy)-5-(1H-indol-2-yl)-pyridin-2-ylamine]
13.5 µM | Nc1ncc(-c2ccc(OCc3ccccc3)c(F)c2)cc1OCc1c(Cl)cccc1Cl [Example I-34, 5-(4-Benzyloxy-3-fluoro-phenyl)-3-(2,6-dichloro-benzyloxy)-pyridin-2-ylamine]
0.99 µM | CCN(CC)CCNC(=O)c1ccc(-c2cnc(N)c(OCc3c(Cl)cccc3Cl)c2)cc1 [Example I-36, 4-[6-Amino-5-(2,6-dichloro-benzyloxy)-pyridin-3-yl]-N-(2-diethylamino-ethyl)-benzamide]
0.82 µM | CCN(CC)CCCNC(=O)c1ccc(-c2cnc(N)c(OCc3c(Cl)cccc3Cl)c2)cc1 [Example I-37, 4-[6-Amino-5-(2,6-dichloro-benzyloxy)-pyridin-3-yl]-N-(3-diethylamino-propyl)-benzamide]
1.02 µM | CN1CCN(C(=O)c2ccc(-c3cnc(N)c(OCc4c(Cl)cccc4Cl)c3)cc2)CC1 [Example I-38, {4-[6-Amino-5-(2,6-dichloro-benzyloxy)-pyridin-3-yl]-phenyl}-(4-methyl-piperazin-1-yl)-methanone]
0.47 µM | CN(C)[C@H]1CCN(C(=O)c2ccc(-c3cnc(N)c(OCc4c(Cl)cccc4Cl)c3)cc2)C1 [Example I-43, {4-[6-Amino-5-(2,6-dichloro-benzyloxy)-pyridin-3-yl]-phenyl}-[(3S)-3-dimethylamino-pyrrolidin-1-yl]-methanone]
0.65 µM | CN(C)[C@@H]1CCN(C(=O)c2ccc(-c3cnc(N)c(OCc4c(Cl)cccc4Cl)c3)cc2)C1 [Example I-44, {4-[6-Amino-5-(2,6-dichloro-benzyloxy)-pyridin-3-yl]-phenyl}-[(3R)-3-dimethylamino-pyrrolidin-1-yl]-methanone]
0.2 µM | Nc1ncc(-c2ccc(C(=O)NCC(O)CN3CCCC3)cc2)cc1OCc1c(Cl)cccc1Cl (stereo not shown) [Example I-46, 4-[6-Amino-5-(2,6-dichloro-benzyloxy)-pyridin-3-yl]-N-(2-hydroxy-3-pyrrolidin-1-yl-propyl)-benzamide]
0.42 µM | Nc1ncc(-c2ccc(C(=O)N3CCC[C@H]3CN3CCCC(F)C3)cc2)cc1OCc1c(Cl)cccc1Cl (stereo partly drawn) [Example I-47, {4-[6-Amino-5-(2,6-dichloro-benzyloxy)-pyridin-3-yl]-phenyl}-[(2S)-2-(3-fluoro-piperidin-1-ylmethyl)-pyrrolidin-1-yl]-methanone]

Compound | IC50
Nc1ncc(-c2ccc(F)cc2)cc1OCc1c(Cl)cccc1Cl [Example I-8, 3-(2,6-Dichloro-benzyloxy)-5-(4-fluoro-phenyl)-pyridin-2-ylamine] | 8.01 µM
Nc1ncc(-c2cccc(F)c2)cc1OCc1c(Cl)cccc1Cl [Example I-11, 3-(2,6-Dichloro-benzyloxy)-5-(3-fluoro-phenyl)-pyridin-2-ylamine] | 13.8 µM
Nc1ccc(-c2cnc(N)c(OCc3c(Cl)cccc3Cl)c2)cc1 [Example I-12, 5-(4-Amino-phenyl)-3-(2,6-dichloro-benzyloxy)-pyridin-2-ylamine] | 0.606 µM
COc1ccc(-c2cnc(N)c(OCc3c(Cl)cccc3Cl)c2)cc1 [Example I-16, 3-(2,6-Dichloro-benzyloxy)-5-(4-methoxy-phenyl)-pyridin-2-ylamine] | 6.55 µM
Nc1ncc(-c2ccccc2Oc2ccccc2)cc1OCc1c(Cl)cccc1Cl [Example I-20, 3-(2,6-Dichloro-benzyloxy)-5-(2-phenoxy-phenyl)-pyridin-2-ylamine] | > 20 µM
CC(C)c1cccc(-c2cnc(N)c(OCc3c(Cl)cccc3Cl)c2)c1 [Example I-22, 3-(2,6-Dichloro-benzyloxy)-5-(3-isopropyl-phenyl)-pyridin-2-ylamine] | 15.9 µM
COc1ccccc1-c1cnc(N)c(OCc2c(Cl)cccc2Cl)c1 [Example I-24, 3-(2,6-Dichloro-benzyloxy)-5-(2-methoxy-phenyl)-pyridin-2-ylamine] | 11.5 µM
Nc1ncc(-c2ccc(CO)cc2)cc1OCc1c(Cl)cccc1Cl [Example I-27, {4-[6-Amino-5-(2,6-dichloro-benzyloxy)-pyridin-3-yl]-phenyl}-methanol] | 2.5 µM
Cc1csc(-c2cnc(N)c(OCc3c(Cl)cccc3Cl)c2)c1 [Example I-30, 3-(2,6-Dichloro-benzyloxy)-5-(4-methyl-thiophen-2-yl)-pyridin-2-ylamine] | 3.5 µM
Nc1ncc(-c2ccc(C(=O)O)cc2)cc1OCc1c(Cl)cccc1Cl [Example I-35, 4-[6-Amino-5-(2,6-dichloro-benzyloxy)-pyridin-3-yl]-benzoic acid] | 12.8 µM
Nc1ncc(-c2ccc(C(=O)N3CCC(CCO)CC3)cc2)cc1OCc1c(Cl)cccc1Cl [Example I-42, {4-(6-Amino-5-(2,6-dichloro-benzyloxy)-pyridin-3-yl]-phenyl}-[4-(2-hydroxy-ethyl)-piperidin-1-yl]-methanone] | 0.56 µM
Nc1ncc(-c2ccc(C(=O)N3CCN(C4CC4)CC3)cc2)cc1OCc1c(Cl)cccc1Cl [Example I-48, {4-[6-Amino-5-(2,6-dichloro-benzyloxy)-pyridin-3-yl]-phenyl}-(4-cyclopropyl-piperazin-1-yl)-methanone] | 1.67 µM

biological target: T2, HGFR (Homo sapiens, UniProt P08581); experiment: HGFR continuous-coupled spectrophotometric assay; type: biochemical; conditions: Table 3, column 'Ki (μM) or I (%)': cells without % sign; read-out: Ki
T2 construct: purchased Upstate 14-526
T2 sequence (P08581 974-1390 limits assumed): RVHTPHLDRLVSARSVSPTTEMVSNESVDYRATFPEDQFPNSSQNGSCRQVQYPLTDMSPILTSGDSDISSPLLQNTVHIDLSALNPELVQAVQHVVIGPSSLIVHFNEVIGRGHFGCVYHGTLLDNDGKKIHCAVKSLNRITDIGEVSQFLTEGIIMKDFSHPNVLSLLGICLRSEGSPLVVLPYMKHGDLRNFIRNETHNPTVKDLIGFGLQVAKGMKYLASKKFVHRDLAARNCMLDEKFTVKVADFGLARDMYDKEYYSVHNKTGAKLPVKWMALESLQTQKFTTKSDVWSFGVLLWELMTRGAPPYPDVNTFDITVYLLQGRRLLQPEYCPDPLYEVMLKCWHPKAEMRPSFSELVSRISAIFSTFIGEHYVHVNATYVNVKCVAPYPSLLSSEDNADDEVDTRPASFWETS

Ki | Compound
0.0472 µM | (4-{6-Amino-5-[1-(2,6- dichloro-3-fluoro-phenyl)- ethoxy]-pyridin-3-yl}- phenyl)-(4-ethyl-piperizin- 1-yl)-methanone [Example I-633]
